Test results: patent US20230134986A1, “GLUCOSE TRIPTOLIDE CONJUGATES AND USES THEREOF” (The Johns Hopkins University, priority 2020, published 2023)

Assays:
Assay type in all cases: cell-based, human
[1] = test system: RPB1 (RNAPII) in PC3 cells; assay: RPB1 degradation in PC3 cells under hypoxia, immunocytochemistry and western blot; details: PC3, hypoxic but not normoxic conditions, 3 µM compound 1
Procedure: Western blot analysis. Whole cell lysates were prepared by adding lysis buffer [4% SDS, 20% glycerol, 10% 2-mercaptoethanol, 0.004% bromophenol blue, 0.125 M Tris-HCl (pH 6.8)] to the cell pellets for 30 minutes in ice followed by centrifugation at 12,000×g for 10 minutes then boiling for 5 minutes. For isolation of cytosolic and mitochondrial fractions of cytochrome C, cell pellets were resuspended in CLAMI buffer (250 mM sucrose, 70 mM KCl, […] digitonin in 1×PBS, protease inhibitor cocktail (1 tablet/10 ml CLAMI buffer)) then incubated on ice for 5 minutes. After centrifugation at 12,000×g for 5 minutes at 4° C., supernatant (cytoplasmic fraction) was collected and the pellet resuspended in lysis buffer as described above. Proteins were then separated by SDS-PAGE and transferred to nitrocellulose membranes (Bio-Rad). […] Antibody-protein complexes were detected using enhanced chemiluminescence (ECL) immunoblotting detection reagent (EMD Millipore).
Immunocytochemistry and cytochemistry. […] Glucose uptake was monitored by incubating cells in 200 μM 2-NBDG (ThermoFisher) for 6 hours prior to fixation. Fluorescence was observed under the Nikon Eclipse TE200 Inverted microscope (Nikon Instruments Inc., Melville, N.Y., USA). […] Rpb1 levels were measured using the MEASURE feature of ImageJ where all the background signals were subtracted from the intergrated density of nuclear Rpb1.

[2] = test system: T7115 (C342T XPB knock-in HEK293T cells); assay: Proliferation of XPB C342T knock-in cell line T7115 ([3H]-thymidine incorporation); details: C342T XPB knock-in versus isogenic WT 293T
Excerpt: (§1) Cells and culture conditions. Primary astrocytes (Lonza, Walkersville, Md.; ABM™ Basal Media with AGM™ SingleQuots™ Supplement Pack), fibroblast (ATCC; Fibroblast Basal Medium (ATCC© PCS-201-030™) with Fibroblast Growth Kit-Serum-free (ATCC© PCS-201-040™)), airway epithelial cell (ATCC; Airway Epithelial Cell Basal Medium (ATCC© PCS-300-030™) with Bronchial Epithelial Cell Growth Kit (ATCC© PCS-300-040™)), renal proximal tubule (ATCC; Renal Epithelial Cell Basal Medium (ATCC© PCS-400-030™) with Renal Epithelial Cell Growth Kit (ATCC© PCS-400-040™)), prostate epithelial cell (Lonza; PrEGM™ BulletKit™) and mammary epithelial cell (Lonza; MEBM™ BulletKit™) were kept in a humidified incubator at 37° C. adjusted to 5% CO2. […]

[3] = test system: RPB1 in C342T XPB mutant cell line; assay: RPB1 degradation in C342T XPB knock-in cells, western blot; details: C342T XPB mutant cell line, compound 1 up to 3 mM (so in the source)
Excerpt: as §1
Western blot analysis. […] Antibody-protein complexes were detected using enhanced chemiluminescence (ECL) immunoblotting detection reagent (EMD Millipore).

CC(C)[C@]12O[C@H]1[C@@H]1O[C@]13[C@]1(O[C@H]1C[C@H]1C4=C(CC[C@@]13C)C(=O)OC4)[C@@H]2OC(=O)CCCO[C@@H]1OC(CO)[C@@H](O)C(O)C1O (stereo in doubt) [Compound 1]
onset of RNAPII (RPB1) degradation [1]: observed as early as 6 h
sensitivity of T7115 mutant line (proliferation) [2]: resistant
RPB1 level [3]: remained stable
